Data taken from patent publication US7118895B2, “Process for producing aglycon by using diglycosidase and flavor-improved food containing the aglycon and converting agent to be used in the process” (Amano Enzyme Inc., priority 2000, dated 2006).

Tests used:
[1] = tested on: Diglycosidase derived from P. multicolor; assay: Reactivity toward various isoflavone glycosides (HPLC); type: biochemical, Penicillium multicolor; design: glucoside / aglycon: unit not given here; settings: for aglycon / glucoside: 55 °C, pH 4.0
Procedure, shortened: (§1)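 Enzymes at 0.75 AU/mL in pH 4.0 acetate buffer were reacted at 55° C with individual isoflavone glycosides (substrate stock 2 mM in methanol) in 20 mM acetate pH 4.0. Aglycone release followed at 0, 1, 3 and 6 h: ethanol-quenched, ODS HPLC with UV 260 nm, quantified against calibration curves.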

[2] = tested on: β-Glucosidase derived from A. niger; assay: as above; type: biochemical, Aspergillus niger; design: glucoside / aglycon: unit not given here; settings: 55 °C, pH 4.0
Procedure, shortened: as §1

Crude diglycosidase = assay: Examination of substrate concentration in the conversion into isoflavone aglycons by diglycosidase using soybean materials; type: biochemical, Penicillium multicolor IAM7153;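 note: percent of the isoflavone family total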
Procedure, shortened: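 Soybean materials (roasted soy flour, soymilk, defatted soybean, concentrated soy protein) at 2–30% (w/v) in 20 mM acetate pH 4.0 were reacted with crude diglycosidase at 55° C with shaking; enzyme solution added was 1.88 AU/mL. Samples taken at 0, 1, 3 and 6 h were ethanol-extracted and analyzed by HPLC.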

## O=c1c(-c2ccc(O)cc2)coc2cc(O[C@@H]3O[C@H](CO)[C@@H](O)[C@H](O)[C@H]3O)cc(O)c12 [genistin]
[1]; Reaction time 0 h
  aglycon: 0
  glucoside: 100
[1]; Reaction time 1 h
  aglycon: 0
  glucoside: 100
[1]; Reaction time 3 h
  aglycon: 0
  glucoside: 100
[1]; Reaction time 6 h
  aglycon: 0
  glucoside: 100
[1]; combined use of β-glucosidase in addition to the enzyme
  efficiency of decomposing by diglycosidase with combined use of β-glucosidase: further enhanced
[2]
  reactivity of β-glucosidase derived from Aspergillus niger (in words): act well
[2]; Reaction time 0 h
  aglycon: 0
  glucoside: 100
[2]; Reaction time 1 h
  aglycon: 100
  glucoside: 0
[2]; Reaction time 3 h
  aglycon: 100
  glucoside: 0
[2]; Reaction time 6 h
  aglycon: 100
  glucoside: 0
Crude diglycosidase; concentrated soybean protein, substrate concentration 2%, heat treatment of enzyme no, reaction time 0 h
  Decomposition efficiency: ratio of each glycoside/aglycon within its isoflavone family: 50.5%
Crude diglycosidase; concentrated soybean protein, substrate concentration 2%, heat treatment of enzyme no, reaction time 1 h
  Decomposition efficiency: ratio of each glycoside/aglycon within its isoflavone family: 1.2%
Crude diglycosidase; concentrated soybean protein, substrate concentration 2%, heat treatment of enzyme no, reaction time 3 h
  Decomposition efficiency: ratio of each glycoside/aglycon within its isoflavone family: not detected
Crude diglycosidase; concentrated soybean protein, substrate concentration 2%, heat treatment of enzyme no, reaction time 6 h
  Decomposition efficiency: ratio of each glycoside/aglycon within its isoflavone family: not detected
Crude diglycosidase; concentrated soybean protein, substrate concentration 2%, heat treatment of enzyme yes, reaction time 6 h
  Decomposition efficiency: ratio of each glycoside/aglycon within its isoflavone family: 51.6%
Crude diglycosidase; concentrated soybean protein, substrate concentration 5%, heat treatment of enzyme no, reaction time 0 h
  Decomposition efficiency: ratio of each glycoside/aglycon within its isoflavone family: 51.2%
Crude diglycosidase; concentrated soybean protein, substrate concentration 5%, heat treatment of enzyme no, reaction time 1 h
  Decomposition efficiency: ratio of each glycoside/aglycon within its isoflavone family: not detected
Crude diglycosidase; concentrated soybean protein, substrate concentration 5%, heat treatment of enzyme no, reaction time 3 h
  Decomposition efficiency: ratio of each glycoside/aglycon within its isoflavone family: not detected
Crude diglycosidase; concentrated soybean protein, substrate concentration 5%, heat treatment of enzyme no, reaction time 6 h
  Decomposition efficiency: ratio of each glycoside/aglycon within its isoflavone family: not detected
Crude diglycosidase; concentrated soybean protein, substrate concentration 5%, heat treatment of enzyme yes, reaction time 6 h
  Decomposition efficiency: ratio of each glycoside/aglycon within its isoflavone family: 52.2%
Crude diglycosidase; concentrated soybean protein, substrate concentration 10%, heat treatment of enzyme no, reaction time 0 h
  Decomposition efficiency: ratio of each glycoside/aglycon within its isoflavone family: 50.6%
Crude diglycosidase; concentrated soybean protein, substrate concentration 10%, heat treatment of enzyme no, reaction time 1 h
  Decomposition efficiency: ratio of each glycoside/aglycon within its isoflavone family: 1.3%
Crude diglycosidase; concentrated soybean protein, substrate concentration 10%, heat treatment of enzyme no, reaction time 3 h
  Decomposition efficiency: ratio of each glycoside/aglycon within its isoflavone family: not detected
Crude diglycosidase; concentrated soybean protein, substrate concentration 10%, heat treatment of enzyme no, reaction time 6 h
  Decomposition efficiency: ratio of each glycoside/aglycon within its isoflavone family: not detected
Crude diglycosidase; concentrated soybean protein, substrate concentration 10%, heat treatment of enzyme yes, reaction time 6 h
  Decomposition efficiency: ratio of each glycoside/aglycon within its isoflavone family: 50.9%
Crude diglycosidase; concentrated soybean protein, substrate concentration 20%, heat treatment of enzyme no, reaction time 0 h
  Decomposition efficiency: ratio of each glycoside/aglycon within its isoflavone family: 50.4%
Crude diglycosidase; concentrated soybean protein, substrate concentration 20%, heat treatment of enzyme no, reaction time 1 h
  Decomposition efficiency: ratio of each glycoside/aglycon within its isoflavone family: 6.0%
Crude diglycosidase; concentrated soybean protein, substrate concentration 20%, heat treatment of enzyme no, reaction time 3 h
  Decomposition efficiency: ratio of each glycoside/aglycon within its isoflavone family: not detected
Crude diglycosidase; concentrated soybean protein, substrate concentration 20%, heat treatment of enzyme no, reaction time 6 h
  Decomposition efficiency: ratio of each glycoside/aglycon within its isoflavone family: not detected
Crude diglycosidase; concentrated soybean protein, substrate concentration 20%, heat treatment of enzyme yes, reaction time 6 h
  Decomposition efficiency: ratio of each glycoside/aglycon within its isoflavone family: 50.8%
Crude diglycosidase; concentrated soybean protein, substrate concentration 30%, heat treatment of enzyme no, reaction time 0 h
  Decomposition efficiency: ratio of each glycoside/aglycon within its isoflavone family: 54.6%
Crude diglycosidase; concentrated soybean protein, substrate concentration 30%, heat treatment of enzyme no, reaction time 1 h
  Decomposition efficiency: ratio of each glycoside/aglycon within its isoflavone family: 2.8%
Crude diglycosidase; concentrated soybean protein, substrate concentration 30%, heat treatment of enzyme no, reaction time 3 h
  Decomposition efficiency: ratio of each glycoside/aglycon within its isoflavone family: not detected
Crude diglycosidase; concentrated soybean protein, substrate concentration 30%, heat treatment of enzyme no, reaction time 6 h
  Decomposition efficiency: ratio of each glycoside/aglycon within its isoflavone family: not detected
Crude diglycosidase; concentrated soybean protein, substrate concentration 30%, heat treatment of enzyme yes, reaction time 6 h
  Decomposition efficiency: ratio of each glycoside/aglycon within its isoflavone family: 55.6%
Crude diglycosidase; roasted soy flour, substrate concentration 2%, heat treatment of enzyme no, reaction time 0 h
  Decomposition efficiency: ratio of each glycoside/aglycon within its isoflavone family: 33.2%
Crude diglycosidase; roasted soy flour, substrate concentration 2%, heat treatment of enzyme no, reaction time 1 h
  Decomposition efficiency: ratio of each glycoside/aglycon within its isoflavone family: not detected
Crude diglycosidase; roasted soy flour, substrate concentration 2%, heat treatment of enzyme no, reaction time 3 h
  Decomposition efficiency: ratio of each glycoside/aglycon within its isoflavone family: not detected
Crude diglycosidase; roasted soy flour, substrate concentration 2%, heat treatment of enzyme no, reaction time 6 h
  Decomposition efficiency: ratio of each glycoside/aglycon within its isoflavone family: not detected
Crude diglycosidase; roasted soy flour, substrate concentration 2%, heat treatment of enzyme yes, reaction time 6 h
  Decomposition efficiency: ratio of each glycoside/aglycon within its isoflavone family: 48.4%
Crude diglycosidase; roasted soy flour, substrate concentration 5%, heat treatment of enzyme no, reaction time 0 h
  Decomposition efficiency: ratio of each glycoside/aglycon within its isoflavone family: 47.8%
Crude diglycosidase; roasted soy flour, substrate concentration 5%, heat treatment of enzyme no, reaction time 1 h
  Decomposition efficiency: ratio of each glycoside/aglycon within its isoflavone family: not detected
Crude diglycosidase; roasted soy flour, substrate concentration 5%, heat treatment of enzyme no, reaction time 3 h
  Decomposition efficiency: ratio of each glycoside/aglycon within its isoflavone family: not detected
Crude diglycosidase; roasted soy flour, substrate concentration 5%, heat treatment of enzyme no, reaction time 6 h
  Decomposition efficiency: ratio of each glycoside/aglycon within its isoflavone family: not detected
Crude diglycosidase; roasted soy flour, substrate concentration 5%, heat treatment of enzyme yes, reaction time 6 h
  Decomposition efficiency: ratio of each glycoside/aglycon within its isoflavone family: 47.8%
Crude diglycosidase; roasted soy flour, substrate concentration 10%, heat treatment of enzyme no, reaction time 0 h
  Decomposition efficiency: ratio of each glycoside/aglycon within its isoflavone family: 59.5%
Crude diglycosidase; roasted soy flour, substrate concentration 10%, heat treatment of enzyme no, reaction time 1 h
  Decomposition efficiency: ratio of each glycoside/aglycon within its isoflavone family: not detected
Crude diglycosidase; roasted soy flour, substrate concentration 10%, heat treatment of enzyme no, reaction time 3 h
  Decomposition efficiency: ratio of each glycoside/aglycon within its isoflavone family: not detected
Crude diglycosidase; roasted soy flour, substrate concentration 10%, heat treatment of enzyme no, reaction time 6 h
  Decomposition efficiency: ratio of each glycoside/aglycon within its isoflavone family: not detected
Crude diglycosidase; roasted soy flour, substrate concentration 10%, heat treatment of enzyme yes, reaction time 6 h
  Decomposition efficiency: ratio of each glycoside/aglycon within its isoflavone family: 49.5%
Crude diglycosidase; roasted soy flour, substrate concentration 20%, heat treatment of enzyme no, reaction time 0 h
  Decomposition efficiency: ratio of each glycoside/aglycon within its isoflavone family: 50.5%
Crude diglycosidase; roasted soy flour, substrate concentration 20%, heat treatment of enzyme no, reaction time 1 h
  Decomposition efficiency: ratio of each glycoside/aglycon within its isoflavone family: not detected
Crude diglycosidase; roasted soy flour, substrate concentration 20%, heat treatment of enzyme no, reaction time 3 h
  Decomposition efficiency: ratio of each glycoside/aglycon within its isoflavone family: not detected
Crude diglycosidase; roasted soy flour, substrate concentration 20%, heat treatment of enzyme no, reaction time 6 h
  Decomposition efficiency: ratio of each glycoside/aglycon within its isoflavone family: not detected
Crude diglycosidase; roasted soy flour, substrate concentration 20%, heat treatment of enzyme yes, reaction time 6 h
  Decomposition efficiency: ratio of each glycoside/aglycon within its isoflavone family: 49.5%
Crude diglycosidase; roasted soy flour, substrate concentration 30%, heat treatment of enzyme no, reaction time 0 h
  Decomposition efficiency: ratio of each glycoside/aglycon within its isoflavone family: 49.4%
Crude diglycosidase; roasted soy flour, substrate concentration 30%, heat treatment of enzyme no, reaction time 1 h
  Decomposition efficiency: ratio of each glycoside/aglycon within its isoflavone family: 5.7%
Crude diglycosidase; roasted soy flour, substrate concentration 30%, heat treatment of enzyme no, reaction time 3 h
  Decomposition efficiency: ratio of each glycoside/aglycon within its isoflavone family: 9.6%
Crude diglycosidase; roasted soy flour, substrate concentration 30%, heat treatment of enzyme no, reaction time 6 h
  Decomposition efficiency: ratio of each glycoside/aglycon within its isoflavone family: 2.0%
Crude diglycosidase; roasted soy flour, substrate concentration 30%, heat treatment of enzyme yes, reaction time 6 h
  Decomposition efficiency: ratio of each glycoside/aglycon within its isoflavone family: 50.1%
Crude diglycosidase; soymilk, substrate concentration 2%, heat treatment of enzyme no, reaction time 0 h
  Decomposition efficiency: ratio of each glycoside/aglycon within its isoflavone family: 54.5%
Crude diglycosidase; soymilk, substrate concentration 2%, heat treatment of enzyme no, reaction time 1 h
  Decomposition efficiency: ratio of each glycoside/aglycon within its isoflavone family: not detected
Crude diglycosidase; soymilk, substrate concentration 2%, heat treatment of enzyme no, reaction time 3 h
  Decomposition efficiency: ratio of each glycoside/aglycon within its isoflavone family: not detected
Crude diglycosidase; soymilk, substrate concentration 2%, heat treatment of enzyme no, reaction time 6 h
  Decomposition efficiency: ratio of each glycoside/aglycon within its isoflavone family: not detected
Crude diglycosidase; soymilk, substrate concentration 2%, heat treatment of enzyme yes, reaction time 6 h
  Decomposition efficiency: ratio of each glycoside/aglycon within its isoflavone family: 38.0%
Crude diglycosidase; soymilk, substrate concentration 5%, heat treatment of enzyme no, reaction time 0 h
  Decomposition efficiency: ratio of each glycoside/aglycon within its isoflavone family: 31.5%
Crude diglycosidase; soymilk, substrate concentration 5%, heat treatment of enzyme no, reaction time 1 h
  Decomposition efficiency: ratio of each glycoside/aglycon within its isoflavone family: not detected
Crude diglycosidase; soymilk, substrate concentration 5%, heat treatment of enzyme no, reaction time 3 h
  Decomposition efficiency: ratio of each glycoside/aglycon within its isoflavone family: not detected
Crude diglycosidase; soymilk, substrate concentration 5%, heat treatment of enzyme no, reaction time 6 h
  Decomposition efficiency: ratio of each glycoside/aglycon within its isoflavone family: not detected
Crude diglycosidase; soymilk, substrate concentration 5%, heat treatment of enzyme yes, reaction time 6 h
  Decomposition efficiency: ratio of each glycoside/aglycon within its isoflavone family: 37.9%
Crude diglycosidase; soymilk, substrate concentration 10%, heat treatment of enzyme no, reaction time 0 h
  Decomposition efficiency: ratio of each glycoside/aglycon within its isoflavone family: 32.9%
Crude diglycosidase; soymilk, substrate concentration 10%, heat treatment of enzyme no, reaction time 1 h
  Decomposition efficiency: ratio of each glycoside/aglycon within its isoflavone family: not detected
Crude diglycosidase; soymilk, substrate concentration 10%, heat treatment of enzyme no, reaction time 3 h
  Decomposition efficiency: ratio of each glycoside/aglycon within its isoflavone family: not detected
Crude diglycosidase; soymilk, substrate concentration 10%, heat treatment of enzyme no, reaction time 6 h
  Decomposition efficiency: ratio of each glycoside/aglycon within its isoflavone family: not detected
Crude diglycosidase; soymilk, substrate concentration 10%, heat treatment of enzyme yes, reaction time 6 h
  Decomposition efficiency: ratio of each glycoside/aglycon within its isoflavone family: 37.6%
Crude diglycosidase; soymilk, substrate concentration 20%, heat treatment of enzyme no, reaction time 0 h
  Decomposition efficiency: ratio of each glycoside/aglycon within its isoflavone family: 33.3%
Crude diglycosidase; soymilk, substrate concentration 20%, heat treatment of enzyme no, reaction time 1 h
  Decomposition efficiency: ratio of each glycoside/aglycon within its isoflavone family: not detected
Crude diglycosidase; soymilk, substrate concentration 20%, heat treatment of enzyme no, reaction time 3 h
  Decomposition efficiency: ratio of each glycoside/aglycon within its isoflavone family: not detected
Crude diglycosidase; soymilk, substrate concentration 20%, heat treatment of enzyme no, reaction time 6 h
  Decomposition efficiency: ratio of each glycoside/aglycon within its isoflavone family: not detected
Crude diglycosidase; soymilk, substrate concentration 20%, heat treatment of enzyme yes, reaction time 6 h
  Decomposition efficiency: ratio of each glycoside/aglycon within its isoflavone family: 38.6%
Crude diglycosidase; soymilk, substrate concentration 30%, heat treatment of enzyme no, reaction time 0 h
  Decomposition efficiency: ratio of each glycoside/aglycon within its isoflavone family: 33.6%
Crude diglycosidase; soymilk, substrate concentration 30%, heat treatment of enzyme no, reaction time 1 h
  Decomposition efficiency: ratio of each glycoside/aglycon within its isoflavone family: not detected
Crude diglycosidase; soymilk, substrate concentration 30%, heat treatment of enzyme no, reaction time 3 h
  Decomposition efficiency: ratio of each glycoside/aglycon within its isoflavone family: not detected
Crude diglycosidase; soymilk, substrate concentration 30%, heat treatment of enzyme no, reaction time 6 h
  Decomposition efficiency: ratio of each glycoside/aglycon within its isoflavone family: not detected
Crude diglycosidase; soymilk, substrate concentration 30%, heat treatment of enzyme yes, reaction time 6 h
  Decomposition efficiency: ratio of each glycoside/aglycon within its isoflavone family: 38.6%
